PubChem BioAssay (NCI)
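Five concentrations, 48 hours, 96-well plates. TGI denotes the concentration required for complete inhibition of growth.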

Experiments:
Assay in all cases: DTP human tumour cell line panel, 48 h
TK-10 renal = tested on: TK-10 renal
KM20L2 colon = tested on: KM20L2 colon
786-0 renal = tested on: 786-0 renal
SF-539 CNS = tested on: SF-539 CNS
HCC-2998 colon = tested on: HCC-2998 colon
XF 498 CNS = tested on: XF 498 CNS
IGROV1 ovarian = tested on: IGROV1 ovarian
KM12 colon = tested on: KM12 colon
HOP-62 NSCLC = tested on: HOP-62 NSCLC
UACC-257 melanoma = tested on: UACC-257 melanoma
MALME-3M melanoma = tested on: MALME-3M melanoma
A549 NSCLC = tested on: A549 NSCLC
OVCAR-8 ovarian = tested on: OVCAR-8 ovarian
OVCAR-3 ovarian = tested on: OVCAR-3 ovarian
NCI-H226 lung = tested on: NCI-H226 lung
RXF 393 renal = tested on: RXF 393 renal
A498 renal = tested on: A498 renal
HT29 colon = tested on: HT29 colon
SNB-19 CNS = tested on: SNB-19 CNS
UO-31 renal = tested on: UO-31 renal
ACHN renal = tested on: ACHN renal
DMS 273 small cell lung = tested on: DMS 273 small cell lung
U251 CNS = tested on: U251 CNS
UACC-62 melanoma = tested on: UACC-62 melanoma
COLO 205 colon = tested on: COLO 205 colon
OVCAR-5 ovarian = tested on: OVCAR-5 ovarian
M14 melanoma = tested on: M14 melanoma
NCI-H522 lung = tested on: NCI-H522 lung
SR leukemia = tested on: SR leukemia
SF-268 CNS = tested on: SF-268 CNS
NCI-H460 lung = tested on: NCI-H460 lung
HCT-15 colon = tested on: HCT-15 colon
SK-MEL-28 melanoma = tested on: SK-MEL-28 melanoma
HCT-116 colon = tested on: HCT-116 colon
NCI-H23 lung = tested on: NCI-H23 lung
SNB-75 CNS = tested on: SNB-75 CNS
SK-OV-3 ovarian = tested on: SK-OV-3 ovarian
M19-MEL melanoma = tested on: M19-MEL melanoma
LOX IMVI melanoma = tested on: LOX IMVI melanoma
SK-MEL-2 melanoma = tested on: SK-MEL-2 melanoma
SW-620 colon = tested on: SW-620 colon
LXFL 529 NSCLC = tested on: LXFL 529 NSCLC
CCRF-CEM leukemia = tested on: CCRF-CEM leukemia
SNB-78 CNS = tested on: SNB-78 CNS
DLD-1 colon = tested on: DLD-1 colon
HOP-92 NSCLC = tested on: HOP-92 NSCLC
HOP-18 NSCLC = tested on: HOP-18 NSCLC
EKVX NSCLC = tested on: EKVX NSCLC
SN12C renal = tested on: SN12C renal
RPMI-8226 leukemia = tested on: RPMI-8226 leukemia
HL-60(TB) leukemia = tested on: HL-60(TB) leukemia
SF-295 CNS = tested on: SF-295 CNS
CAKI-1 renal = tested on: CAKI-1 renal
SK-MEL-5 melanoma = tested on: SK-MEL-5 melanoma
OVCAR-4 ovarian = tested on: OVCAR-4 ovarian
MOLT-4 leukemia = tested on: MOLT-4 leukemia
RXF-631 renal = tested on: RXF-631 renal
DMS 114 small cell lung = tested on: DMS 114 small cell lung
K-562 leukemia = tested on: K-562 leukemia

Measured: TGI

COc1cc(C(=O)C/C(CCC(=O)Nc2ccc(Cl)cc2Cl)=N/Nc2nnc(C)n2N)ccc1O
not listed: OVCAR-4 ovarian | MOLT-4 leukemia | RXF-631 renal | DMS 114 small cell lung | K-562 leukemia
> 100 µM: all other assays above

COc1cc(C2(C)SCCCS2)c(I)c(OC)c1OC
not listed: RXF 393 renal
> 100 µM: all other assays above

CCCCN(CCCC)C(=O)C(=O)CC(=O)/C=C/c1ccccc1
not listed: XF 498 CNS
> 100 µM: all other assays above
